Reference: US20250213707A1, “COMPOUND FOR INCREASING EFFICACY OF ONCOLYTIC VIRUSES” (ABLEVIA BIOTECH GMBH, priority 2022, published 2025)

Columns and labels:
[1] = tested on: polyclonal antibody ab6982; assay: Epitope mapping of polyclonal antibody ab6982 against cyclic peptides of Ad5 fiber and hexon (peptide array); type: binding, rabbits
Source text: Polyclonal antibody ab6982 (Abcam) was generated by immunizing rabbits with purified AdV. It reacts with all capsid proteins of Ad5 including hexon, fiber and penton. It was shown that the antibody neutralizes Ad5 infection in a bioassay at 1000 adenovirus 5 particles/ml, a 50% inactivation of the adenovirus can be achieved at a 1/25,000 dilution of the antibody. In order to identify epitopic regions that could contain peptides for ab6982 paratope binding, the antibody was mapped against the sequences of fiber (NCBI Reference Sequence: AP 000226.1) and hexon protein (GenBank: BAG48782.1). […] The binding signal of this antibody to the array yielded several peptides that were aligned and clustered against the sequence of the protein. The peptide clusters were named cluster1-7 (fiber protein) and clusters8-16 (hexon protein) according to their ranked order of cyclic peptide hits (i.e. cluster contains the strongest binders, cluster2 the second strongest etc.). Below are the aligments of the corresponding peptides that bind to polyclonal antibody ab6982.

[2] = tested on: IgG from human donors (anti-AAV antibodies); assay: Screen for anti-AAV antibodies in human sera, 2452 linear 15-amino-acid AAV peptides on microarrays (Table 1); type: binding; parameters: key to group I: X: the deduplicated aggregate of the respective top 10 peptide hits for each donor was compiled and designated as group I; key to group II: X: the deduplicated aggregate of the respective top 25 peptide hits for each donor was compiled and designated as group II; key to group III: X: the deduplicated aggregate of the respective top 50 peptide hits for each donor was compiled and designated as group III; details: for group I: membership in deduplicated aggregate of top 10 peptide hits for each donor
How it was run: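 Protein G-purified IgG from human donor blood incubated with microarrays of 2452 linear 15-mer peptides from 16 AAVs; binding read by fluorescence. Background-subtracted signals ranked per donor, with top 10, 25, 50 and 250 hits pooled and deduplicated into groups I-IV.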

[3] = cyclic peptides of hexon protein (clusters 8-16)
[4] = cyclic peptides of fiber protein (clusters 1-7)
[5] = human donor IgG binding to linear 15-amino-acid AAV peptides on microarray, fluorescence
[6] = membership in deduplicated aggregate of top 25 peptide hits for each donor, human donor IgG binding to linear 15-amino-acid AAV peptides on microarray, fluorescence
[7] = membership in deduplicated aggregate of top 50 peptide hits for each donor, human donor IgG binding to linear 15-amino-acid AAV peptides on microarray, fluorescence
[8] = X = peptide belongs to the deduplicated aggregate of the top 50 peptide hits for each donor, linear 15-amino-acid AAV peptides, IgG binding by fluorescence
[9] = X = peptide in the deduplicated aggregate of the top 50 peptide hits for each donor (top 17.5% of all peptides screened), linear 15-amino-acid AAV peptides on microarrays, human donor IgG, fluorescence
[10] = X = peptide belongs to the deduplicated aggregate of the top 25 peptide hits for each donor, linear 15-amino-acid AAV peptides, IgG binding by fluorescence

## 306 (ANYNIGYQGF) [compound 306]
[1]; [3]
  antibody binding signal ranking from the microarray experiment: 122

## 192 (NSFLDPEYWN) [compound 192]
[1]; [4]
  antibody binding signal ranking from the microarray experiment: 187

## 208 (ALEINLEEEDDDN) [compound 208]
[1]; [3]
  antibody binding signal ranking from the microarray experiment: 01

## 229 (VDEQAEQ) [compound 229]
[1]; [3]
  antibody binding signal ranking from the microarray experiment: 20

## 254 (EEEDDDNEDEVDE) [compound 254]
[1]; [3]
  antibody binding signal ranking from the microarray experiment: 188

## 252 (EEDDDNEDEVDEQ) [compound 252]
[1]; [3]
  antibody binding signal ranking from the microarray experiment: 148

## 288 (DRMYSFFRNF) [compound 288]
[1]; [3]
  antibody binding signal ranking from the microarray experiment: 072

## 287 (IETPDTHISYMP) [compound 287]
[1]; [3]
  antibody binding signal ranking from the microarray experiment: 159

## 209 (ATALEINLEEEDD) [compound 209]
[1]; [3]
  antibody binding signal ranking from the microarray experiment: 02

## 274 (ETPDTHI) [compound 274]
[1]; [3]
  antibody binding signal ranking from the microarray experiment: 051

## 206 (YTFSYIA) [compound 206]
[1]; [4]
  antibody binding signal ranking from the microarray experiment: 181

## 190 (LDPEYWNFRN) [compound 190]
[1]; [4]
  antibody binding signal ranking from the microarray experiment: 155

## 257 (VDEQAEQQKT) [compound 257]
[1]; [3]
  antibody binding signal ranking from the microarray experiment: 036

## 238 (LEEEDDDNED) [compound 238]
[1]; [3]
  antibody binding signal ranking from the microarray experiment: 034

## 295 (YIPESYKDRMYSF) [compound 295]
[1]; [3]
  antibody binding signal ranking from the microarray experiment: 152

## 205 (YINEIFA) [compound 205]
[1]; [4]
  antibody binding signal ranking from the microarray experiment: 168

## 173 (SMSFSWD) [compound 173]
[1]; [4]
  antibody binding signal ranking from the microarray experiment: 144

## 199 (NEIFATSSYTFSY) [compound 199]
[1]; [4]
  antibody binding signal ranking from the microarray experiment: 092

## 189 (LNNSFLDPEY) [compound 189]
[1]; [4]
  antibody binding signal ranking from the microarray experiment: 114

## 195 (YINEIFATSSYTF) [compound 195]
[1]; [4]
  antibody binding signal ranking from the microarray experiment: 055

## 278 (EDVDIETPDTHIS) [compound 278]
[1]; [3]
  antibody binding signal ranking from the microarray experiment: 056

## 311 (QMLANYNIGYQGF) [compound 311]
[1]; [3]
  antibody binding signal ranking from the microarray experiment: 190

## 245 (DDNEDEV) [compound 245]
[1]; [3]
  antibody binding signal ranking from the microarray experiment: 078

## 222 (INLEEEDDDN) [compound 222]
[1]; [3]
  antibody binding signal ranking from the microarray experiment: 23

## 201 (HNYINEIFATSSY) [compound 201]
[1]; [4]
  antibody binding signal ranking from the microarray experiment: 099

## 203 (INEIFATSSY) [compound 203]
[1]; [4]
  antibody binding signal ranking from the microarray experiment: 110

## 204 (NYINEIFATSSYT) [compound 204]
[1]; [4]
  antibody binding signal ranking from the microarray experiment: 119

## 268 (IETPDTH) [compound 268]
[1]; [3]
  antibody binding signal ranking from the microarray experiment: 045

## 187 (VLLNNSFLDPEYW) [compound 187]
[1]; [4]
  antibody binding signal ranking from the microarray experiment: 088

## 184 (FLDPEYW) [compound 184]
[1]; [4]
  antibody binding signal ranking from the microarray experiment: 050

## 267 (KVVLYSEDVDIET) [compound 267]
[1]; [3]
  antibody binding signal ranking from the microarray experiment: 044

## 181 (PEYWNFR) [compound 181]
[1]; [4]
  antibody binding signal ranking from the microarray experiment: 031

## 196 (SYTFSYI) [compound 196]
[1]; [4]
  antibody binding signal ranking from the microarray experiment: 064

## 277 (DIETPDTHIS) [compound 277]
[1]; [3]
  antibody binding signal ranking from the microarray experiment: 055

## 224 (DEVDEQA) [compound 224]
[1]; [3]
  antibody binding signal ranking from the microarray experiment: 10

## 244 (NLEEEDD) [compound 244]
[1]; [3]
  antibody binding signal ranking from the microarray experiment: 065

## 280 (YSEDVDIETPDTH) [compound 280]
[1]; [3]
  antibody binding signal ranking from the microarray experiment: 059

## 214 (ALEINLEEED) [compound 214]
[1]; [3]
  antibody binding signal ranking from the microarray experiment: 07

## 276 (DVDIETPDTH) [compound 276]
[1]; [3]
  antibody binding signal ranking from the microarray experiment: 054

## 247 (DDDNEDE) [compound 247]
[1]; [3]
  antibody binding signal ranking from the microarray experiment: 096

## 242 (DDNEDEVDEQ) [compound 242]
[1]; [3]
  antibody binding signal ranking from the microarray experiment: 057

## YHLNGRDSLVNPGP (REGION 1..14: note = peptide derived from viral capsid protein) [SEQ ID NO: 1904]
[2]; [5]
  group I: X
[2]; [6]
  group II: X
[2]; [7]
  group III: X

## 325 (DNNEGADGVGNSSGN; REGION 1..15: note = peptide derived from viral capsid protein) [compound 325]
[2]; [8]
  group III: X

## 314 (EHDKAYDRQLDSGDN; REGION 1..15: note = peptide derived from viral capsid protein) [compound 314]
[2]; [8]
  group III: X

## 323 (RPVEHSPVEPDSSSG; REGION 1..15: note = peptide derived from viral capsid protein) [compound 323]
[2]; [8]
  group III: X

## TAPGKKRPVDQSPQ (REGION 1..14: note = peptide derived from viral capsid protein) [SEQ ID NO: 1923]
[2]; [5]
  group I: X
[2]; [6]
  group II: X
[2]; [7]
  group III: X

## 347 (AVNLQSSSTDPATGD; REGION 1..15: note = peptide derived from viral capsid protein) [compound 347]
[2]; [8]
  group III: X

## APGKKRPVDQSPQE (REGION 1..14: note = peptide derived from viral capsid protein) [SEQ ID NO: 1918]
[2]; [5]
  group I: X
[2]; [6]
  group II: X
[2]; [7]
  group III: X

## 363 (ASFITQYSTGQVSVE; REGION 1..15: note = peptide derived from viral capsid protein) [compound 363]
[2]; [8]
  group III: X

## NPGVAMATHKDDEE [SEQ ID NO: 1957]
[2]; [5]
  group I: X
[2]; [6]
  group II: X
[2]; [7]
  group III: X

## KNTPVPADPPTTES [SEQ ID NO: 1930]
[2]; [5]
  group I: X
[2]; [6]
  group II: X
[2]; [7]
  group III: X

## EEEIKTTNPVATEE (REGION 1..14: note = peptide derived from viral capsid protein) [SEQ ID NO: 1935]
[2]; [5]
  group I: X
[2]; [6]
  group II: X
[2]; [7]
  group III: X

## 359 (SVPDPQPLGEPPATP; REGION 1..15: note = peptide derived from viral capsid protein) [compound 359]
[2]; [8]
  group III: X

## 428 (PVATEEYGIVADNLQ; REGION 1..15: note = peptide derived from viral capsid protein) [compound 428]
[2]; [9]
  group III: X

## 474 (ENSKRWNPEIQYTNN; REGION 1..15: note = peptide derived from viral capsid protein) [compound 474]
[2]; [9]
  group III: X

## 290 (NVDFAVNTDGTYSEP; REGION 1..15: note = peptide derived from viral capsid protein) [compound 290]
[2]; [8]
  group III: X

## DDEDKFFPMSGVMI (REGION 1..14: note = peptide derived from viral capsid protein) [SEQ ID NO: 1937]
[2]; [5]
  group I: X
[2]; [6]
  group II: X
[2]; [7]
  group III: X

## DWLEDNLSEGIREW (REGION 1..14: note = peptide derived from viral capsid protein) [SEQ ID NO: 1943]
[2]; [5]
  group I: X
[2]; [6]
  group II: X
[2]; [7]
  group III: X

## HSQSLDRLMNPLID (REGION 1..14: note = peptide derived from viral capsid protein) [SEQ ID NO: 1951]
[2]; [5]
  group I: X
[2]; [6]
  group II: X
[2]; [7]
  group III: X

## 318 (DKGEPVNEADAAALE; REGION 1..15: note = peptide derived from viral capsid protein) [compound 318]
[2]; [8]
  group III: X

## NAADAAALEHDKAY [SEQ ID NO: 1956]
[2]; [5]
  group I: X
[2]; [6]
  group II: X
[2]; [7]
  group III: X

## 317 (HKDDEEKFFPQSGVL; REGION 1..15: note = peptide derived from viral capsid protein) [compound 317]
[2]; [8]
  group III: X

## 289 (YLEGNMLITSESETQ; REGION 1..15: note = peptide derived from viral capsid protein) [compound 289]
[2]; [10]
  group II: X
[2]; [8]
  group III: X

## 286 (VLEPFGLVEEGAKTA; REGION 1..15: note = peptide derived from viral capsid protein) [compound 286]
[2]; [10]
  group II: X
[2]; [8]
  group III: X

## 414 (GNGLDKGEPVNAADA; REGION 1..15: note = peptide derived from viral capsid protein) [compound 414]
[2]; [9]
  group III: X
